Measured values published in patent publication US11858905B1, “Cathepsin L inhibitors” (priority 2023, dated 2024).
Like-named read-outs stand apart in the source and are kept apart here.

Assays:
[1] = target: human CatL (Homo sapiens (Human), UniProt P07711); assay: Human Cathepsin L (CatL) enzymatic assay; format: biochemical
Protocol: Human Cathepsin L (CatL) Enzymatic Assay
60 μL of the compounds were added to 384-well dilution plate. The compound solution was diluted for 1:3 in succession in DMSO for each column for 10 pts. 0.05 μL diluted compound solution was added in each row to 384 assay plates (Corning 4514) using Echo (LABCYTE 655), each column containing 2 replicates. 5 μL working solution of human CatL enzyme (Abcam #ab81780) was added to 384-well assay plate, centrifuge 1000 rpm for 1 min. The mixture was incubated at […] for 15 min, then add 5 μL working solution of CatL substrate (Genscript #C7360HB140_5) to initiate the reaction (CatL: 0.05 nM, Substrate: 500 nM). Incubate at […] for 30 min. Reading Ex370 nm and Em460 nm fluorescence signals with BMG CLARIO Star Plusaucu. Percent inhibition for each compound was calculated and IC50 (half maximal inhibitory concentration) was fitted from non-linear regression by XLfit 5.5.0.

[2] = test system: SARS-CoV-2 PsVs; assay: microbe, parasite or virus in culture; format: cell-based; details: for activity at 0.5 µM / activity at 5 µM: Severe acute respiratory syndrome coronavirus 2, Vero C1008, 24 h; for activity at 0.5 µM: read-out: % Infection rate at 500 nM; for activity at 5 µM: read-out: % Infection rate at 5 uM
[3] = test system: RSV; details: RSV infected mice; cited from earlier work
[4] = CatL 0.05 nM, substrate 500 nM, pH 5.5, read-out: Enzymatic inhibition IC50

Chain of human CatL (P07711 whole entry, looked up): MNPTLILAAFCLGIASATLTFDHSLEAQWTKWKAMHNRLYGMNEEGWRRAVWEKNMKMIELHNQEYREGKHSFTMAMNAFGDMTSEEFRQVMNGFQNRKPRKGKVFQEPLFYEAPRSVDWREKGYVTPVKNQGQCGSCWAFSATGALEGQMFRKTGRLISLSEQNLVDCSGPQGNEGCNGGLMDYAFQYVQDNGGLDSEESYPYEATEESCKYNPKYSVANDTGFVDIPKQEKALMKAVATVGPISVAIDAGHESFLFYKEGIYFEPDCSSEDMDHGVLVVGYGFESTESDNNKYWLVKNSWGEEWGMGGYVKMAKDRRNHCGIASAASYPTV

| Structure (SMILES) | IC50 [1, 4] [nM] | activity at 0.5 µM [2] [%] | activity at 5 µM [2] [%] | IC50 ([1]; summary of Table 2, read-out: IC50 for inhibiting CatL) [nM] | protection of cells from pseudovirus infection at 500 nM [2] | airway hyperresponsiveness [3] | viral clearance [3] |
| --- | --- | --- | --- | --- | --- | --- | --- |
| CC(=O)Nc1ccc(-c2ccc3nc(C[C@H](NC(=O)c4cc(C5(C)CC5)nn4C4CC4)C(=O)NC4(C#N)CC4)oc3c2)cn1 [Compound 41, (2S)—N-(1-cyanocyclopropyl)-2-{[2-cyclopropyl-5-(1-methylcyclopropyl)pyrazol-3-yl]formamido}-3-[6-(6-acetamidopyridin-3-yl)-1,3-benzoxazol-2-yl]propanamide] | 5.3 | 90 | 57.7 |  |  |  |  |
| Cc1ccc(-c2ccc3nc(C[C@H](NC(=O)c4cc(C5(C)CC5)nn4C4CC4)C(=O)NC4(C#N)CC4)oc3c2)cn1 [Compound 42, (S)—N-(1-((1-cyanocyclopropyl)amino)-3-(6-(6-methylpyridin-3-yl)benzo[d]oxazol-2-yl)-1-oxopropan-2-yl)-1-cyclopropyl-3-(1-methylcyclopropyl)-1H-pyrazole-5-carboxamide] | 4.5 | 34 | 5.6 |  |  |  |  |
| CCNc1ccc(-c2ccc3nc(C[C@H](NC(=O)c4cc(C5(C)CC5)nn4C4CC4)C(=O)NC4(C#N)CC4)oc3c2)cn1 [Compound 43, (S)—N-(1-((1-cyanocyclopropyl)amino)-3-(6-(6-(ethylamino)pyridin-3-yl)benzo[d]oxazol-2-yl)-1-oxopropan-2-yl)-1-cyclopropyl-3-(1-methylcyclopropyl)-1H-pyrazole-5-carboxamide] | 0.8 | 18 | 0.8 |  |  |  |  |
| Cc1cccc(-c2ccc3nc(C[C@H](NC(=O)c4cc(C5(C)CC5)nn4C4CC4)C(=O)NC4(C#N)CC4)oc3c2)n1 [Compound 44, (S)—N-(1-((1-cyanocyclopropyl)amino)-3-(6-(6-methylpyridin-2-yl)benzo[d]oxazol-2-yl)-1-oxopropan-2-yl)-1-cyclopropyl-3-(1-methylcyclopropyl)-1H-pyrazole-5-carboxamide] | 16.5 | 82 | 55.5 | < 50 |  |  |  |
| COCCN1CC=C(c2ccc3nc(C[C@H](NC(=O)c4cc(C(C)(C)C)nn4C4CC4)C(=O)NCC#N)oc3c2)CC1 [Compound 45, (2S)-2-[(5-tert-butyl-2-cyclopropylpyrazol-3-yl)formamido]-N-(cyanomethyl)-3-{6-[1-(2-methoxyethyl)-3,6-dihydro-2H-pyridin-4-yl]-1,3-benzoxazol-2-yl}propanamide] | 2.5 | 7 | 0.02 |  | nearly full protection |  |  |
| COCCN1CC=C(c2ccc3nc(C[C@H](NC(=O)c4cc(C5(C)CC5)nn4C4CC4)C(=O)NC4(C#N)CC4)oc3c2)CC1 [Compound 46, (2S)—N-(1-cyanocyclopropyl)-2-{[2-cyclopropyl-5-(1-methylcyclopropyl)pyrazol-3-yl]formamido}-3-{6-[1-(2-methoxyethyl)-3,6-dihydro-2H-pyridin-4-yl]-1,3-benzoxazol-2-yl}propanamide] | 1 | 7 | 0.08 |  | nearly full protection |  |  |
| CC1(c2cc(C(=O)N[C@@H](Cc3nc4ccc(-c5ccnc(C(F)F)c5)cc4o3)C(=O)NC3(C#N)CC3)n(C3CC3)n2)CC1 [Compound 47, (S)—N-(1-((1-cyanocyclopropyl)amino)-3-(6-(2-(difluoromethyl)pyridin-4-yl)benzo[d]oxazol-2-yl)-1-oxopropan-2-yl)-1-cyclopropyl-3-(1-methylcyclopropyl)-1H-pyrazole-5-carboxamide] | 6.6 | 56 | 15.9 |  |  |  |  |
| CC1(c2cc(C(=O)N[C@@H](Cc3nc4ccc(-c5ccnc(C6CC6)c5)cc4o3)C(=O)NC3(C#N)CC3)n(C3CC3)n2)CC1 [Compound 48, (S)—N-(1-((1-cyanocyclopropyl)amino)-3-(6-(2-cyclopropylpyridin-4-yl)benzo[d]oxazol-2-yl)-1-oxopropan-2-yl)-1-cyclopropyl-3-(1-methylcyclopropyl)-1H-pyrazole-5-carboxamide] | 3.5 | 63 | 22.4 |  |  |  |  |
| CC(C)C[C@H](NC(=O)[C@H]1O[C@@H]1C(=O)O)C(=O)NCCCCN=C(N)N [Compound E64, E64] |  |  |  |  |  | prevented airway hyperresponsiveness | enhanced viral clearance |
| NC(=O)c1ncn([C@@H]2O[C@H](CO)[C@@H](O)[C@H]2O)n1 [ribavirin] |  |  |  |  |  | prevented airway hyperresponsiveness | enhanced viral clearance |
